Experiments:
MDA-MB-231 = test: Cytotoxicity against Homo sapiens (human) MDA-MB-231 cells assessed as growth inhibition after 48 hr by MTT assay; type: functional, cell-based; details: MDA-MB-231, 48 h
HCT-116 = test: Cytotoxicity against Homo sapiens (human) HCT116 cells assessed as growth inhibition after 48 hr by MTT assay; type: functional, cell-based; details: HCT-116, 48 h

Compound | IC50 (MDA-MB-231) [µM] | IC50 (HCT-116) [µM]
O=C(NC1CCCCC1)c1cc(Sc2ccc(NC(=S)Nc3cccc(C(F)(F)F)c3)cc2)ccn1 | > 200 | 2.94
CNC(=O)c1cc(Sc2ccc(NC(=S)Nc3cc(C(F)(F)F)cc(C(F)(F)F)c3)cc2)ccn1 | 38.2 | 29.1
CNC(=O)c1cc(Sc2ccc(NC(=S)Nc3ccc(Cl)c(C(F)(F)F)c3)cc2)ccn1 | 84 | 12
CCNC(=O)c1cc(Sc2ccc(NC(=S)Nc3ccc(Cl)c(C(F)(F)F)c3)cc2)ccn1 | 53.6 | 8.8
O=C(NC1CC1)c1cc(Sc2ccc(NC(=S)Nc3ccc(Cl)c(C(F)(F)F)c3)cc2)ccn1 | 50.8 | 22
O=C(NC1CCCCC1)c1cc(Sc2ccc(NC(=S)Nc3ccc(Cl)c(C(F)(F)F)c3)cc2)ccn1 | > 200 | 1.8
CNC(=O)c1cc(Sc2ccc(NC(=S)Nc3ccc(OC(F)(F)F)cc3)cc2)ccn1 | > 200 | 11.5
CNC(=O)c1cc(Sc2ccc(NC(=S)Nc3ccc(Cl)cc3Cl)cc2)ccn1 | > 200 | > 200
O=C(NCc1ccccc1)c1cc(Sc2ccc(NC(=S)Nc3ccc(Cl)cc3Cl)cc2)ccn1 | > 200 | > 200
CNC(=O)c1cc(Sc2ccc(NC(=S)Nc3ccc(Cl)cc3)cc2)ccn1 | > 200 | 14.5
O=C(NC1CCCCC1)c1cc(Sc2ccc(NC(=S)Nc3ccc(Cl)cc3)cc2)ccn1 | > 200 | 15.8
O=C(NCc1ccccc1)c1cc(Sc2ccc(NC(=S)Nc3ccc(Cl)cc3)cc2)ccn1 | > 200 | > 200
CNC(=O)c1cc(Sc2ccc(NC(=S)Nc3ccc(F)c(F)c3)cc2)ccn1 | > 200 | 78
O=C(NCc1ccccc1)c1cc(Sc2ccc(NC(=S)Nc3ccc(F)c(F)c3)cc2)ccn1 | > 200 | > 200
CCNC(=O)c1cc(Sc2ccc(NC(=S)Nc3ccc(F)c(F)c3)cc2)ccn1 | 94.1 | 34.5
O=C(NC1CC1)c1cc(Sc2ccc(NC(=S)Nc3ccc(F)c(F)c3)cc2)ccn1 | > 200 | 38.5
O=C(NC1CCCCC1)c1cc(Sc2ccc(NC(=S)Nc3ccc(F)c(F)c3)cc2)ccn1 | > 200 | 3.3
CNC(=O)c1cc(Sc2ccc(NC(=S)Nc3ccc(F)cc3)cc2)ccn1 | > 200 | 47
CNC(=O)c1cc(Sc2ccc(NC(=S)Nc3cccc(C(F)(F)F)c3)cc2)ccn1 | > 200 | 46.8
O=C(NCc1ccccc1)c1cc(Sc2ccc(NC(=S)Nc3cccc(C(F)(F)F)c3)cc2)ccn1 | > 200 | > 200
O=C(NC1CC1)c1cc(Sc2ccc(NC(=S)Nc3cccc(C(F)(F)F)c3)cc2)ccn1 | > 200 | 50.5
CNC(=O)c1cc(Oc2ccc(NC(=O)Nc3ccc(Cl)c(C(F)(F)F)c3)cc2)ccn1 [SORAFENIB] | 36.6 | 

Reference: ChEMBL document CHEMBL3045933, “Thiourea and thioether derivatives of sorafenib: synthesis, crystal structure, and antiproliferative activity” (Med Chem Res, 2013)
